The text below walks through data of ChEMBL document CHEMBL4665804, “Characterization of SPK 98, a Torin2 analog, as ATR and mTOR dual kinase inhibitor” (Bioorg Med Chem Lett, 2020).

The structures appear in SMILES notation. Values after ≈ are worked out from the molar mass of the structure shown. Active and inactive are the calls of the source. The rule behind the calls is not given here.

The subject of data set [1] is HCT-116. Description: Growth inhibition of human HCT116 cells measured after 72 hrs by Celltiter-Glo assay. The format is functional. Background: Cellular ATP, detected with luciferase, serves as a proxy for viable cell number.
Another data set has as its system HeLa. Description: Growth inhibition of human HeLa cells measured after 72 hrs by Celltiter-Glo assay. It counts as functional.
Data set [2] addresses Serine/threonine-protein kinase ATR (Homo sapiens) (UniProt Q13535). Description: Inhibition of ATR in human HCT116 cells assessed as decrease in Chk1 phosphorylation at Ser317 residue at 250 nM treated for 1 hr prior to UV-irradiation exposure and measured after 1 hr by Immunoblot analysis. It counts as cell-based. To be noted: HCT-116, time 2.0 hrs. For orientation: A western blot detects proteins with antibodies after separation by electrophoresis.

The target in data set [3] is Serine/threonine-protein kinase mTOR (Homo sapiens) (UniProt P42345). Put plainly: Inhibition of mTOR in human HCT116 cells assessed as decrease in p70S6K phosphorylation at Thr389 residue at 50 nM treated for 1 hr prior to UV-irradiation exposure and measured after 1 hr by immunoblot analysis. It counts as cell-based. To be noted: HCT-116, time 2.0 hrs.
For data set [4], the target named is Serine/threonine-protein kinase ATR (Homo sapiens) (UniProt Q13535). Put plainly: Inhibition of ATR in human HCT116 cells assessed as decrease in Chk1 phosphorylation at Ser317 residue by measuring decrease in foci formation at 50 nM treated for 1 hr prior to UV-irradiation exposure and measured after 1 hr by Immunofluorescence analysis. It counts as cell-based. To be noted: HCT-116, time 2.0 hrs.

The target in data set [5] is Serine/threonine-protein kinase mTOR (Homo sapiens) (UniProt P42345). Put plainly: Inhibition of mTOR in human HCT116 cells assessed as decrease in p70S6K phosphorylation at Thr389 residue at 250 nM treated for 1 hr prior to UV-irradiation exposure and measured after 1 hr by immunoblot analysis. The format is cell-based. To be noted: HCT-116, time 2.0 hrs.
The target in data set [6] is T1, Serine-protein kinase ATM (Homo sapiens, UniProt Q13315). Put plainly: Inhibition of ATM in human HCT116 cells assessed as decrease in gammaH2AX phosphorylation at Ser139 residue by measuring decrease in foci formation at 50 nM treated for 1 hr prior to UV-irradiation exposure and measured after 1 hr by immunofluorescence assay. The format is cell-based. To be noted: hct-116, 2 h, 0.05 µM.

In data set [7] the test system is HCT-116. Put plainly: Inhibition of ATR/mTOR in human HCT116 cells harboring ATM+/-p53+/+ gene allele assessed as premature chromatin condensation at 50 nM treated for 1 hr prior to UV-irradiation exposure and measured after 1 hr by DAPI staining based confocal microscopic method. It counts as cell-based. To be noted: time 2.0 hrs.
The nature of data set [8]: Aqueous solubility of the compound relative to Torin2. It counts as physicochemical. Particulars: buffer.
Data set [9] is described as follows: Stability in human liver microsomes assessed as proportion of drug metabolized measured after 30 mins. The format is ADME, Microsome. Particulars: read-out: Drug metabolism. For orientation: Liver microsomes are a subcellular fraction often used to study metabolism.
Data set [10] can be described thus: Stability in mouse liver microsomes assessed as proportion of drug metabolized measured after 30 mins. The format is ADME, Microsome. To be noted: read-out: Drug metabolism.
A short description of data set [11]: Stability in rat liver microsomes assessed as proportion of drug metabolized measured after 30 mins. It counts as ADME, Microsome. To be noted: read-out: Drug metabolism.
Data set [12] in a line: Half life in human liver microsome. To be noted: liver microsomes. It counts as ADME.
Data set [13] is described as follows: Half life in mouse liver microsome. The format is ADME. To be noted: liver microsomes.
The nature of data set [14]: Half life in rat liver microsome. It counts as ADME. Particulars: liver microsomes.
Data set [15] in a line: Intrinsic clearance in human liver microsome. The format is ADME. To be noted: liver microsomes, read-out: CLH.
A short description of data set [16]: Intrinsic clearance in mouse liver microsome. The format is ADME. Particulars: liver microsomes, read-out: CLH.
Data set [17] in a line: Intrinsic clearance in rat liver microsome. The format is ADME. Particulars: liver microsomes, read-out: CLH.
The target in data set [18] is T1, Serine-protein kinase ATM. Description: Inhibition of ATM in human HCT116 cells assessed as decrease in Chk2 phosphorylation at Thr68 residue by measuring decrease in foci formation at 50 nM treated for 1 hr prior to UV-irradiation exposure and measured after 1 hr by immunofluorescence assay. To be noted: hct-116, 2 h, 0.05 µM. It counts as cell-based.
Data set [19] can be described thus: Aqueous solubility of the compound. The format is physicochemical.

T1 sequence (Q13315 whole entry): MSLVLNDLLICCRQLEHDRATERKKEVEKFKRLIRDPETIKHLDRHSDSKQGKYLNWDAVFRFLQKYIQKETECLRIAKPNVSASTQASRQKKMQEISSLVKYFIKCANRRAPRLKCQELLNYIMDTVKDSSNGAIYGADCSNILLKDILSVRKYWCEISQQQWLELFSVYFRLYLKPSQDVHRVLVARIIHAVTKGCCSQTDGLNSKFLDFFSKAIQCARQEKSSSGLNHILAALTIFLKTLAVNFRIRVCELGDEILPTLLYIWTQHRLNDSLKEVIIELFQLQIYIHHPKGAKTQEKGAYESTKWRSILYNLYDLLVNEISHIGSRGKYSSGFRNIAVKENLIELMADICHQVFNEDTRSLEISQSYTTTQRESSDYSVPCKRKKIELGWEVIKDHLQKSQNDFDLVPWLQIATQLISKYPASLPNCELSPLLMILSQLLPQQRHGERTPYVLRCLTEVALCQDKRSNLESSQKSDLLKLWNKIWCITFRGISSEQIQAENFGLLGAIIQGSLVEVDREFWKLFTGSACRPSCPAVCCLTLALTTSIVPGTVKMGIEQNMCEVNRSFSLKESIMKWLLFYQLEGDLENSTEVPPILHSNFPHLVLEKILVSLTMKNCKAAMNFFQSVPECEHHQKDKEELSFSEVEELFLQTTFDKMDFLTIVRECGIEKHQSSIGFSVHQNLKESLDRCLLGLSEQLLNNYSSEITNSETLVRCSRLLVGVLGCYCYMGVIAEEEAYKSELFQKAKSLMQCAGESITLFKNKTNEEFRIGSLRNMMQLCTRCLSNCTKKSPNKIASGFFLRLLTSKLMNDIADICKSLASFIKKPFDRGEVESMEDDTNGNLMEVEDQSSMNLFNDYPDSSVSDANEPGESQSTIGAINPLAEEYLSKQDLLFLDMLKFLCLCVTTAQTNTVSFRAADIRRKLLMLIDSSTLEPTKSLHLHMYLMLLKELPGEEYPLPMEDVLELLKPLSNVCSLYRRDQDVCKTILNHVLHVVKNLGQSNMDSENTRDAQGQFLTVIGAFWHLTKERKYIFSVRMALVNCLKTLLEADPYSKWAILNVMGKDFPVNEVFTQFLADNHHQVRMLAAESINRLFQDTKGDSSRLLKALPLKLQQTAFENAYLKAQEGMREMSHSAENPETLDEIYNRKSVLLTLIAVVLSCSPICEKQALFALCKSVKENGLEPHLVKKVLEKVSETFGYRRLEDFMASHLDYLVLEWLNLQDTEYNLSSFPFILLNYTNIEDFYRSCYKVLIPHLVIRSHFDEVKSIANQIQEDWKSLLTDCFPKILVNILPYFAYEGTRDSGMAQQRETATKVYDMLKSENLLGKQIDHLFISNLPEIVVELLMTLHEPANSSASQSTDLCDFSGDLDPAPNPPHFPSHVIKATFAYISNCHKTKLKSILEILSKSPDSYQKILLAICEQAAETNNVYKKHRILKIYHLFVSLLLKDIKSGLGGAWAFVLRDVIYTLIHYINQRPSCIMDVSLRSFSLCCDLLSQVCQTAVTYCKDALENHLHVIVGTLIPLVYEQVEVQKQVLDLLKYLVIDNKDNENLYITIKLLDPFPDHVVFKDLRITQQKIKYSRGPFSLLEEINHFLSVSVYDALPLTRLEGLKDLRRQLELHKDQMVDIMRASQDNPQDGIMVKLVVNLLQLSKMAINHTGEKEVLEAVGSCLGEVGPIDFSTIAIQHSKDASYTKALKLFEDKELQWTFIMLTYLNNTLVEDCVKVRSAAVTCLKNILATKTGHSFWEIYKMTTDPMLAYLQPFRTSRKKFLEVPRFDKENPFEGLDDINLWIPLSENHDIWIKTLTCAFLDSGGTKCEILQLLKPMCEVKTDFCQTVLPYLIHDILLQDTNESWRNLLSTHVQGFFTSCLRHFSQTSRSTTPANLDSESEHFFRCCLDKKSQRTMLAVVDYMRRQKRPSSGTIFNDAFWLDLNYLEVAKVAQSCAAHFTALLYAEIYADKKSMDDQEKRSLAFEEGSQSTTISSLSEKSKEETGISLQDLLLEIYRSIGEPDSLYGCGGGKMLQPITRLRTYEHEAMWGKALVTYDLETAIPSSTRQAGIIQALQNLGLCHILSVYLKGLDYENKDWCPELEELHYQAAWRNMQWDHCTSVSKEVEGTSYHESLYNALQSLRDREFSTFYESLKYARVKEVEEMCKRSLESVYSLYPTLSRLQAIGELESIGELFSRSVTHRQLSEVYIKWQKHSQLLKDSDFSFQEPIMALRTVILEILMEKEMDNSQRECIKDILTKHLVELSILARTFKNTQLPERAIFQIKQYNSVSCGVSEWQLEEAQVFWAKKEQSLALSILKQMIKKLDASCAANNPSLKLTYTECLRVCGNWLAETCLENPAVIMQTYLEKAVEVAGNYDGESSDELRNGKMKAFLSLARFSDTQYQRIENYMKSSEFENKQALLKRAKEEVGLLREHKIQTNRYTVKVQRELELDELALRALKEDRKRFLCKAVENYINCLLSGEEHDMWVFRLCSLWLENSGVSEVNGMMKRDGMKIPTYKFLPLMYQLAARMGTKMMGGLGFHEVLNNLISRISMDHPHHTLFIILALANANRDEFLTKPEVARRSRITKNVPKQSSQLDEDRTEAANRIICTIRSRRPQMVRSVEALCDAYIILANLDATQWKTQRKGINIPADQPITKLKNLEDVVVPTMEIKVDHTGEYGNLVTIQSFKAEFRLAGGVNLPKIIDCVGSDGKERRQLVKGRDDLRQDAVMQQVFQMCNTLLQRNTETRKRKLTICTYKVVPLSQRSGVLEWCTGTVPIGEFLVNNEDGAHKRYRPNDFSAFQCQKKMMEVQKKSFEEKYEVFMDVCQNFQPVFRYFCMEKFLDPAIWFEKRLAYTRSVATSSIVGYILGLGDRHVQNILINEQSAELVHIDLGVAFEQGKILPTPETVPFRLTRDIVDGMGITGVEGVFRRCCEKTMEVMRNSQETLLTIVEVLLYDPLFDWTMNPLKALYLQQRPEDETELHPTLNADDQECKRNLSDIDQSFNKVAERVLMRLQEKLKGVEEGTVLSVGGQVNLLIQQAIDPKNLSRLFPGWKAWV

Turning to `O=c1ccc2cnc3ccc(-c4ccc(N5CCOCC5)nc4)cc3c2n1-c1cccc(C(F)(F)F)c1`, the values for the GI50 with HCT-116 [1] and in the data set on HeLa were 800 nM and 330 nM, respectively. Also, the inhibition entry in data set [2] and in data set [3] was “Active” throughout.

Turning to `CS(=O)(=O)Nc1ccc(-c2ccc3ncc4ccc(=O)n(-c5cccc(C(F)(F)F)c5)c4c3c2)cn1`, in the data set on HCT-116 [1], it took 1420 nM to inhibit growth by half (GI50). The inhibition result in [2] and in data set [3] was “Active” throughout.

Take `Nc1cnc(-c2ccc3ncc4ccc(=O)n(-c5cccc(C(F)(F)F)c5)c4c3c2)cn1`: the inhibition (in general, the drop in the measured response relative to a control, in per cent) in data set [4] was “inactive”. For the same compound, the GI50 (as a rule, the concentration that inhibits growth by half) in the data set with HCT-116 [1] came to 135 nM; in the data set with HeLa it was 121 nM. In addition, the inhibition entry in data set [2], in data set [3] and in data set [5] was “Active” each time. Also, the “inhibition (INH)” value in data set [6] is given as “Not Active”.

With `Nc1ccc(-c2ccc3ncc4ccc(=O)n(-c5cccc(C(F)(F)F)c5)c4c3c2)cn1`, the inhibition entry (in [4]; with HCT-116 [7]) was “Active” each time. In addition, the GI50 in the data set on HCT-116 [1] came to 32.2 nM; in the data set with HeLa, 98 nM.

For the compound `O=c1ccc2cnc3ccc(-c4ccc(N5CCNCC5)nc4)cc3c2n1-c1cccc(C(F)(F)F)c1`, the inhibition result (in data set [4]; in data set [3]; with HCT-116 [7]) was “Active” each time. In addition, the “fold change (FC)” value in data set [8] was determined as 10. The GI50 with HCT-116 [1] is 56 nM; in the data set on HeLa, 50.4 nM. The inhibition in data set [2] is 100%. For the same compound, the metabolised at 0.5 h is 55% in [9], 11% in data set [10] and 41% in data set [11]. In addition, the values for the half-life in data set [12], in data set [13] and in data set [14] were 31 min, 157 min and 42 min, respectively. For the same compound, the microsomal CLint in data set [15] amounted to 44 µL/min/mg; in data set [16] it was 9 µL/min/mg; in data set [17], 33 µL/min/mg. The “inhibition (INH)” value in data set [18] and in [6] was “Not Active” throughout. Besides, the solubility (as a rule, the concentration that dissolves in the medium under given conditions) in data set [19] was determined as 22 µM (≈ 11 µg/mL).
